SMILES strings stand for the structures.

In general, melting point refers to the temperature of the solid-liquid transition. With `CCn1nccc1N(C(=O)COc1cccc(O)c1C=O)C(C)C` [compound 22, N-(1-ethyl-1H-pyrazol-5-yl)-2-(2-formyl-3-hydroxyphenoxy)-N-isopropylacetamide], the melting point is 179 to 182 °C.

For the origin of these results see patent US9248199B2, “1:1 adducts of sickle hemoglobin” (Global Blood Therapeutics, Inc., priority 2014, dated 2016).
